The values below come from patent publication US20260265199A1, “CRYSTALLINE FORMS OF (R)-2-AMINO-5-(4-(2-(3,5-DIFLUOROPHENYL)-2-HYDROXYACETAMIDO)-2-METHYLPHENYL)-N-ISOPROPYLNICOTINAMIDE AND METHODS FOR USING THE SAME” (HIBERCELL, INC., priority 2023, published 2026).

In general, solubility refers to how much of the substance goes into solution per volume.

Format in all cases: physicochemical
The nature of data set [1]: Relative humidity stressing of Form D. The following applies: ambient.
A short description of data set [2]: Dynamic vapor sorption (5% to 95% RH, Example 26 method). On the procedure: Automated vapor sorption (VS) data were collected on a Surface Measurement System DVS Intrinsic instrument, or a VTI SGA-100 instrument. Samples were not dried prior to analysis. Sorption and desorption data were collected over a range from 5% to 95% RH at 10% RH increments under a nitrogen purge. The equilibrium criterion used for analysis was less than 0.0100% weight change in 5 minutes with a maximum equilibration time of 3 hours. Data were not corrected for the initial moisture content of the samples.

The nature of data set [3]: Solubility study of Form A of the compound of formula (I) in solvents (aliquot addition, visual). The following applies: thermodynamic from solid, room temperature, read-out: Approximate Solubility. On the procedure:
A solubility study of Form A in various solvent systems was conducted according to the following protocol: aliquots of the test solvent systems were added to weighed samples of Form A, prepared according to Example 27, at room temperature. The resulting mixtures were sonicated between solvent additions to facilitate dissolution. Complete dissolution of the test material was determined visually. The solubility was estimated based on the total solvent used to provide complete dissolution.

A short description of data set [4]: Water activity study of Form A of the compound of formula (I). The following applies: for Result (XRPD of solids): ambient; for Solid form (XRPD) after storage in solvent mixture: ambient conditions. On the procedure: The water activity study was conducted using the following protocol: solutions were prepared by adding a sufficient amount of Form A, prepared according to Example 27, to a given solvent mixture such that excess solids were present. The mixture was then agitated for a predetermined period of time (Table 31) in a sealed vial under ambient conditions. After agitation, the solids were isolated for analysis and characterized using XRPD.

Entries after “also recorded” stand apart in the source; their conditions may differ. Where two headings read alike, the source gives them in different places.

Take `Cc1cc(NC(=O)[C@H](O)c2cc(F)cc(F)c2)ccc1-c1cnc(N)c(C(=O)NC(C)C)c1` [Form D, (R)-2-amino-5-(4-(2-(3,5-difluorophenyl)-2-hydroxyacetamido)-2-methylphenyl)-N-isopropylnicotinamide]: in data set [1] (75% RH, 4 days), the Observation result is given as “Free flowing” and the “Result (XRPD form)” value is recorded as “remained physically stable; also recorded: Form D”. In data set [1] (97% RH, 20 days), the Observation entry is given as “Free flowing” and the “Result (XRPD form)” value was “no phase changed had occurred; also recorded: remained physically stable; also recorded: Form D”. Besides, in data set [2], the “Solid form recovered from the DVS experiment (XRPD)” value is given as “remained as Form D”. In data set [2] (5 to 95% RH), the “Weight gain and loss through the sorption/desorption cycle (DVS)” value was “approximately 1.9%”. In data set [2] (from 5 to 95% RH), the “Hygroscopicity (DVS)” value is on record as “limited hygroscopicity”.

As to `Cc1cc(NC(=O)[C@H](O)c2cc(F)cc(F)c2)ccc1-c1cnc(N)c(C(=O)NC(C)C)c1` [Form A of the compound of formula (I), (R)-2-amino-5-(4-(2-(3,5-difluorophenyl)-2-hydroxyacetamido)-2-methylphenyl)-N-isopropylnicotinamide], the solubility in data set [3] (organic solvent or mixture, acetone) was above 115 mg/mL; in data set [3] (organic solvent or mixture, acetonitrile) it was 12 mg/mL; in data set [3] (organic solvent or mixture, chloroform) it was below 3 mg/mL; in data set [3] (organic solvent or mixture, diethyl ether), below 2 mg/mL; in data set [3] (organic solvent or mixture, ethanol) it was 49 mg/mL; in data set [3] (organic solvent or mixture, ethyl acetate), 26 mg/mL. For the same compound, the solubility in data set [3] (organic solvent or mixture, heptane) was below 3 mg/mL; in data set [3] (organic solvent or mixture, isopropyl alcohol), 14 mg/mL; in data set [3] (organic solvent or mixture, methanol), 103 mg/mL; in data set [3] (organic solvent or mixture, tetrahydrofuran) it was above 150 mg/mL; in data set [3] (organic solvent or mixture, toluene), below 4 mg/mL; in data set [3] (water) it was below 3 mg/mL. Also, the “Result (XRPD of solids)” value is “Form H” in data set [4] (IPA/water 90:10 v/v, 0.67 aw, 27 days); “Form C” in data set [4] (MeCN/water 92:8 v/v, 0.82 aw, 4 days); “Form A*” in data set [4] (water/acetone 80:20 v/v, 0.96 aw, 4 days). For the same compound, the “Solid form (XRPD) after storage in solvent mixture” value in data set [4] (acetonitrile/water (92:8 v/v), four days) was “Form C”; in data set [4] (isopropanol/water (90:10 v/v), 27 days) it was “Form H”; in data set [4] (isopropanol/water (94:6 v/v), four days), “mixture of Form A and Form H”; in data set [4] (water/acetone (80:20 v/v), four days), “Form A”.
